Where two headings read alike, the source gives them in different places.
How the values were obtained:
Assay type in all cases: cell-based
[1] = molecular target: T1, human cloned CHRM3 receptor (M3_CHO cells) (Homo sapiens, UniProt P20309); test: CHRM3 Ca++ Flux Assay (agonist mode, FDSS 7000EX); conditions: for M3 FDSS PA: Percent Activity measured to EC100 of Carbachol; for EC50: agonist mode, geometric mean if tested more than once, read-out: M3 FDSS EC50
T1 construct: expressed in transfected cells; host or cells: CHO-K1
T1 sequence (P20309 whole entry): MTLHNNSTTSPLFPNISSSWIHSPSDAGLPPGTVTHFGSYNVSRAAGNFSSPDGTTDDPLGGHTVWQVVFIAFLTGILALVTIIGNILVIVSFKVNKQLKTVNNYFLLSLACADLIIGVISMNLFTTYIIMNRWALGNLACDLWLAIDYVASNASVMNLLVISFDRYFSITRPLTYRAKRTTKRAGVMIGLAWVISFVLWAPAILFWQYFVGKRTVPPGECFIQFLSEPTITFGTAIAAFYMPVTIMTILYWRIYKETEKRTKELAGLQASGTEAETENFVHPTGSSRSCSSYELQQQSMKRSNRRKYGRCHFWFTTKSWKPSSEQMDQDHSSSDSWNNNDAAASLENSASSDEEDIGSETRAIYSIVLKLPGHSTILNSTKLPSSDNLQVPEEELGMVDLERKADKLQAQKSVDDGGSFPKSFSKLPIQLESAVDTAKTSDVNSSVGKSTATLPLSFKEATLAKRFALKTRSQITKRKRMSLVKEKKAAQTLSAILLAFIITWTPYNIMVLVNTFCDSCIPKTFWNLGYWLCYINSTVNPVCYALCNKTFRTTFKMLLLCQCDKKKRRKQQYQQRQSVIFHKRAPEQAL
Experimental: (§1) The above examples were characterized by measuring the intracellular mobilization of Ca++ ions caused by signaling events mediated by the receptor. The Intra-cellular Calcium flux levels were captured by the highly sensitive Ca++ indicator, Calcium Assay Kit (BD Biosciences, Catalog Number 640178). The fluorescent activity from all receptors were monitored by the fluorescent imager, FDSS 7000EX (Hamamatsu) over a span of 3 minutes.
(§2) CHO-K1 cells stably expressing the human cloned CHRM3 receptor (M3_CHO cells) were grown and maintained in a monolayer culture with F12/HAM (Life Technologies) supplemented with 10% Fetal Bovine Serum, 1× Pen-Strep, and 0.4 mg/mL Geneticin in a humidified atmosphere (5% CO2) at 37° C. The cultures were grown to 80-9 0% confluency in T150 flasks (Corning) and washed with 1×DPBS and lifted with 0.05% Trypsin (Life Technologies). The cells were then spun (1K rpm, 3 minutes) and frozen using Recovery Cell Culture Freezing Media (Gibco Technologies). Cells were stored in liquid nitrogen and thawed a day before the assay. A similar procedure was used for cells stably expressing the human cloned CHRM5 receptor (M5_CHO).
(§3) Prior to the day of the assay, stable M3_CHO or M5_CHO cells were thawed and plated on Greiner 384 well black TC treated plates at 12K cells/well in F12/DMEM supplemented with 10% FBS (Hyclone) and kept overnight in a humidified atmosphere (5% CO2) at 37° C. The next day, cells were loaded with Ca^++ dye (BD Biosciences) using Loading Buffer (HBSS +Ca/+Mg, 20 mM HEPES, 2.5 mM Probenecid) and placed back in cell incubator for a minimum of 1 hour. After incubation, the dye was replaced with Assay Buffer (HBSS −Ca/−Mg, 20 mM HEPES, 2.5 mM Probenecid) and kept at room temperature in the dark before running on cell imager. The FDSS 7000EX (Hamamatsu) was used to acquire Ca^++ traces from cells treated with 11 point dose response of compounds in triplicate in order to generate dose response curves in agonist mode. All compounds were serially diluted in DMSO then prepared in Assay Buffer for Ca^++ flux studies. The dose response curves were generated from the average of triplicate wells obtained from each data point and used a non-linear regression of four parameter dose response algorithm. The Percent Activity (PA) was measured to EC100 of Carbachol.

[2] = molecular target: T2, human cloned CHRM2 receptor (M2_CHO cells) (Homo sapiens, UniProt P08172); test: CHRM2 Ca++ Flux Assay (agonist mode, FDSS 7000EX); conditions: for M2 FDSS PA: Percent Activity measured to EC100 of Carbachol; for EC50: agonist mode, geometric mean if tested more than once, read-out: M2 FDSS EC50
T2 construct: expressed in transfected cells; host or cells: CHO-K1
T2 sequence (P08172 1-466): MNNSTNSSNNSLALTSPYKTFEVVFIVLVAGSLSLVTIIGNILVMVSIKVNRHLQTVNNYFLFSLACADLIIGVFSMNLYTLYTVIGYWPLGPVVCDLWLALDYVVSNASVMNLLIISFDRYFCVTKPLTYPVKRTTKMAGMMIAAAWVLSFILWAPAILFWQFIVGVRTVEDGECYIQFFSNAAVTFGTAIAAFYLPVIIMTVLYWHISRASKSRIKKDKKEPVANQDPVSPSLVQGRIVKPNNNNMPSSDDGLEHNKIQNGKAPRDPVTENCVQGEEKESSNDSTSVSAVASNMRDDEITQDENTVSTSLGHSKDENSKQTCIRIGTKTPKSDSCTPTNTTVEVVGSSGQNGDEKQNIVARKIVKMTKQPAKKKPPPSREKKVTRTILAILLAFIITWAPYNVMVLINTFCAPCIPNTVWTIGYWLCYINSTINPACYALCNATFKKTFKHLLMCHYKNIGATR
Experimental: as §1
as §2, with “CHRM2” for “CHRM3”, “(M2_CHO” for “(M3_CHO”, “assay.” for “assay. A similar procedure was used for cells stably expressing the human cloned CHRM5 receptor (M5_CHO).”
Prior to the day of the assay, stable M2 CHO cells were thawed and plated on Greiner 384 well TC treated plate at a density of 12K cells/well and kept overnight in a humidified atmosphere (5% CO2) at 37° C. The following day, the cells were loaded with Ca^++ dye (BD Biosciences) using Loading Buffer (HBSS +Ca/+Mg, 20 mM HEPES, 2.5 mM Probenecid) and placed back in cell incubator for a minimum of 1 hour and maximum of 2 hours. After incubation, the dye was replaced with Assay Buffer (HBSS −Ca/−Mg, 20 mM HEPES, 2.5 mM Probenecid) supplemented with 20 μM ATP (Sigma Aldrich) and kept at room temperature for 60 minutes prior before running on cell imager. The FDSS 7000EX (Hamamatsu) was used to acquire Ca^++ traces from cells in response to compound treatment and the data was used to generate dose response curves in agonist mode. All compounds were serially diluted in DMSO then prepared in Assay Buffer for Ca^++ flux studies. The dose response curves were generated from the average of triplicate wells obtained from each data point and used a non-linear regression of four parameter dose response algorithm. The Percent Activity (PA) was measured to EC100 of Carbachol.

[3] = molecular target: T3, human cloned CHRM5 receptor (M5_CHO) (Homo sapiens, UniProt P08912); test: CHRM5 Ca++ Flux Assay (agonist mode, FDSS 7000EX); conditions: for M5 FDSS PA: Percent Activity measured to EC100 of Carbachol; for EC50: agonist mode, geometric mean if tested more than once, read-out: M5 FDSS EC50
T3 construct: expressed in transfected cells; host or cells: CHO (M5_CHO)
T3 sequence (P08912 1-532): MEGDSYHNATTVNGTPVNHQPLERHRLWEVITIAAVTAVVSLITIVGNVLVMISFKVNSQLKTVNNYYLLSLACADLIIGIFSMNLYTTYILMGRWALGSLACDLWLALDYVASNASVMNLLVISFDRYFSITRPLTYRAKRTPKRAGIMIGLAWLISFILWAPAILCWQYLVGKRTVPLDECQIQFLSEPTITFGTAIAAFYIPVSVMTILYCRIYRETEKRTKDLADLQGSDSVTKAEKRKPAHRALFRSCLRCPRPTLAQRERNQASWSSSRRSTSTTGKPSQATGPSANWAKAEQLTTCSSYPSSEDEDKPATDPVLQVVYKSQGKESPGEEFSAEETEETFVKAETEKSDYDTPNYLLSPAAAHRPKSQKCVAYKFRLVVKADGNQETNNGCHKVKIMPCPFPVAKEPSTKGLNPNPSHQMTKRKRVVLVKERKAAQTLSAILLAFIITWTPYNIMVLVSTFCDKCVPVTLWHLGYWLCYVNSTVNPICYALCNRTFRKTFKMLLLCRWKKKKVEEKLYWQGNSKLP
Experimental: as §1, §2, §3

| Compound | M3 FDSS PA [1] | EC50 [1] | M2 FDSS PA [2] | M5 FDSS PA [3] | EC50 [3] | EC50 [2] | M2 FDSS PA ([2]; citrate salt) | EC50 ([2]; citrate salt) | M5 FDSS PA ([3]; citrate salt) | EC50 ([3]; citrate salt) |
| --- | --- | --- | --- | --- | --- | --- | --- | --- | --- | --- |
| O[C@H]1CC[C@@H](c2ccccc2C2CCN([C@@H]3CCC4(C3)CN(c3nnco3)C4)CC2)CC1 (single isomer, unassigned) [Example 2N, (1S,4s)-4-(2-(1-((R)-2-(1,3,4-oxadiazol-2-yl)-2-azaspiro[3.4]octan-6-yl)piperidin-4-yl)phenyl)cyclohexan-1-ol or (1R,4r)-4-(2-(1-((R)-2-(1,3,4-oxadiazol-2-yl)-2-azaspiro[3.4]octan-6-yl)piperidin-4-yl)phenyl)cyclohexan-1-ol] | 0% | > 25 µM | 0% | 0% | > 25 µM | – | – | – | – | – |
| OC1CCC(c2ccccc2C2CCN([C@@H]3CCC4(C3)CN(c3nnco3)C4)CC2)CC1 (single isomer, unassigned) [Example 2O, (1s,4r)-4-(2-(1-((R)-2-(1,3,4-oxadiazol-2-yl)-2-azaspiro[3.4]octan-6-yl)piperidin-4-yl)phenyl)cyclohexan-1-ol or (1r,4r)-4-(2-(1-((R)-2-(1,3,4-oxadiazol-2-yl)-2-azaspiro[3.4]octan-6-yl)piperidin-4-yl)phenyl)cyclohexan-1-ol] | 0% | > 25 µM | 28% | 0% | > 25 µM | 0.09 µM | – | – | – | – |
| O=C(N1CC2(CC[C@@H](N3CCC(c4ccccc4OCCC(F)(F)F)CC3)C2)C1)C1(F)CC1 (single isomer, unassigned) [Example 7AA, (R)-(1-fluorocyclopropyl)(6-(4-(2-(3,3,3-trifluoropropoxy)phenyl)piperidin-1-yl)-2-azaspiro[3.4]octan-2-yl)methanone or (S)-(1-fluorocyclopropyl)(6-(4-(2-(3,3,3-trifluoropropoxy)phenyl)piperidin-1-yl)-2-azaspiro[3.4]octan-2-yl)methanone] | 0% | > 25 µM | 0% | 0% | > 25 µM | – | – | – | – | – |
| CC(C)(O)CCOc1ccccc1C1CCN([C@@H]2CCC3(C2)CN(C(=O)C2(F)CC2)C3)CC1 (single isomer, unassigned) [Example 7BB, (R)-(1-fluorocyclopropyl)(6-(4-(2-(3-hydroxy-3-methylbutoxy)phenyl)piperidin-1-yl)-2-azaspiro[3.4]octan-2-yl)methanone or (S)-(1-fluorocyclopropyl)(6-(4-(2-(3-hydroxy-3-methylbutoxy)phenyl)piperidin-1-yl)-2-azaspiro[3.4]octan-2-yl)methanone] | 0% | > 25 µM | 0% | 0% | > 25 µM | – | – | – | – | – |
| COC(C)(C)CCOc1ccccc1C1CCN([C@@H]2CCC3(C2)CN(C(=O)C2(F)CC2)C3)CC1 (single isomer, unassigned) [Example 7FF, (R)-(1-fluorocyclopropyl)(6-(4-(2-(3-methoxy-3-methylbutoxy)phenyl)piperidin-1-yl)-2-azaspiro[3.4]octan-2-yl)methanone or (S)-(1-fluorocyclopropyl)(6-(4-(2-(3-methoxy-3-methylbutoxy)phenyl)piperidin-1-yl)-2-azaspiro[3.4]octan-2-yl)methanone] | 0% | > 25 µM | 0% | 0% | > 25 µM | – | – | – | – | – |
| O=C(N1CC2(CC[C@@H](N3CCC(c4ccccc4OCc4ncccn4)CC3)C2)C1)C1(F)CC1 (single isomer, unassigned) [Example 7M, (R)-(1-fluorocyclopropyl)(6-(4-(2-(pyrimidin-2-ylmethoxy)phenyl)piperidin-1-yl)-2-azaspiro[3.4]octan-2-yl)methanone or (S)-(1-fluorocyclopropyl)(6-(4-(2-(pyrimidin-2-ylmethoxy)phenyl)piperidin-1-yl)-2-azaspiro[3.4]octan-2-yl)methanone] | 0% | > 25 µM | 0% | 0% | > 25 µM | – | – | – | – | – |
| O=C(C1COC1)N1CC2(CC[C@H](N3CCC(c4ccccc4OC(F)F)CC3)C2)C1.O=C(O)CC(O)(CC(=O)O)C(=O)O (single isomer, unassigned) [Example 8E, (S)-(6-(4-(2-(difluoromethoxy)phenyl)piperidin-1-yl)-2-azaspiro[3.4]octan-2-yl)(oxetan-3-yl)methanone or (R)-(6-(4-(2-(difluoromethoxy)phenyl)piperidin-1-yl)-2-azaspiro[3.4]octan-2-yl)(oxetan-3-yl)methanone citrate salt] | – | – | – | – | – | – | 26% | 0.096 µM | 1% | 2.16 µM |
| O=C(C1COC1)N1CC2(CC[C@H](N3CCC(c4ccccc4OC(F)F)CC3)C2)C1.O=C(O)CC(O)(CC(=O)O)C(=O)O (single isomer, unassigned) [Example 8F, (S)-(6-(4-(2-(difluoromethoxy)phenyl)piperidin-1-yl)-2-azaspiro[3.4]octan-2-yl)(oxetan-3-yl)methanone or (R)-(6-(4-(2-(difluoromethoxy)phenyl)piperidin-1-yl)-2-azaspiro[3.4]octan-2-yl)(oxetan-3-yl)methanone citrate salt] | – | – | – | – | – | – | 0% | – | 0% | > 25 µM |

Source: patent US12122761B2, “2-azaspiro[3.4]octane derivatives as M4 agonists” (NOVARTIS AG, priority 2019, dated 2024)
